Test results from ChEMBL document CHEMBL3856205, “Synthesis and biological evaluation of novel 4-hydroxytamoxifen analogs as estrogen-related receptor gamma inverse agonists” (Eur J Med Chem, 2016).

Key:
[1] = target: T1, Estrogen-related receptor gamma (Homo sapiens, UniProt P62508)
T1 sequence (P62508 whole entry): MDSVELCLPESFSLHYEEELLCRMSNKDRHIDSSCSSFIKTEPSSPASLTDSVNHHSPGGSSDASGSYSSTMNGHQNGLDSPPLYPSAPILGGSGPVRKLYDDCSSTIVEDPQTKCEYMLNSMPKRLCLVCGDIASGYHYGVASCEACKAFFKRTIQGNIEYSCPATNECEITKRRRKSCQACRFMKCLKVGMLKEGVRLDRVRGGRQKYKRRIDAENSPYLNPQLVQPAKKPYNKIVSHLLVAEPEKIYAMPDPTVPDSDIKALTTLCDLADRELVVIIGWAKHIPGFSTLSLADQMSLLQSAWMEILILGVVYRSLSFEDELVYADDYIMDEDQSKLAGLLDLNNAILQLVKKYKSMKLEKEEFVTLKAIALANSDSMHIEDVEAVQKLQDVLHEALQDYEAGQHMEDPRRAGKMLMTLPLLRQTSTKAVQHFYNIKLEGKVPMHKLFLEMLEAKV
Description: Inhibition of fluorescien-conjugated coactivator PGC1a binding to GST-tagged human ERRgamma LBD after 1 hr by TR-FRET assay

CYP1A2 = target: T2, CYP1A2 (Homo sapiens, UniProt P05177); assay: Inhibition of CYP1A2 in human liver microsomes assessed as remaining activity by measuring phenacetin O-deethylase activity at 10 uM pre-incubated for 5 mins followed by NADPH regenerating system addition by LC-MS/MS analysis relative to control; format: ADME; conditions: probe phenacetin (O-deethylation), read-out: Activity
T2 sequence (P05177 whole entry): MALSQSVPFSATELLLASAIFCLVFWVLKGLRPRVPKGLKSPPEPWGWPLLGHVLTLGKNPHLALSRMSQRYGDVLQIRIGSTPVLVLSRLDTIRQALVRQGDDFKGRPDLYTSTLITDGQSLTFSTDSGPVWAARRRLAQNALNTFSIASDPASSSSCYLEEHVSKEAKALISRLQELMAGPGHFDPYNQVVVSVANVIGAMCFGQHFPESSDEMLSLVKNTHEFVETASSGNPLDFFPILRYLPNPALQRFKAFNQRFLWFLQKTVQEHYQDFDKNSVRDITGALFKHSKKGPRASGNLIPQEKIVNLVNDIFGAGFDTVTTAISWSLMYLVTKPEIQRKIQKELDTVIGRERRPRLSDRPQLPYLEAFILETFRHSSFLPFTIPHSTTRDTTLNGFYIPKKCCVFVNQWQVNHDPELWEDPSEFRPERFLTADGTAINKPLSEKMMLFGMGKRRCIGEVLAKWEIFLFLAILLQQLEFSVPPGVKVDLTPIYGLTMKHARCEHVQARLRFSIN

[2] = target: T1, Estrogen-related receptor gamma; remark: listed apart in the source
Description: Inverse agonist activity at ERRgamma (unknown origin) expressed in human AD293 cells after 24 hrs by beta-galactosidase/luciferase reporter gene assay

CYP2C19 = CYP2C19 (Homo sapiens, UniProt P33261); assay: Inhibition of CYP2C19 in human liver microsomes assessed as remaining activity by measuring S-mephenytoin 4-hydroxylase activity at 10 uM pre-incubated for 5 mins followed by NADPH regenerating system addition by LC-MS/MS analysis relative to control; format: ADME; conditions: probe S-mephenytoin (4-hydroxylation), read-out: Activity
in vitro [3] = conditions: mouse, liver microsomes
Description: Metabolic stability in mouse liver microsomes assessed as compound remaining at 1 uM after 30 mins in presence of NADPH by LC-MS/MS analysis

CYP2C9 = CYP2C9 (Homo sapiens, UniProt P11712); assay: Inhibition of CYP2C9 in human liver microsomes assessed as remaining activity by measuring tolbutamide 4-hydroxylase activity at 10 uM pre-incubated for 5 mins followed by NADPH regenerating system addition by LC-MS/MS analysis relative to control; format: ADME; conditions: probe tolbutamide (4-hydroxylation), read-out: Activity
[4] = Metabolic stability in dog liver microsomes assessed as compound remaining at 1 uM after 30 mins in presence of NADPH by LC-MS/MS analysis; format: ADME, Canis lupus familiaris; conditions: read-out: Stability
CYP3A4 = CYP3A4 (Homo sapiens, UniProt P08684); assay: Inhibition of CYP3A4 in human liver microsomes assessed as remaining activity by measuring midazolam 1'-hydroxylase activity at 10 uM pre-incubated for 5 mins followed by NADPH regenerating system addition by LC-MS/MS analysis relative to control; format: ADME; conditions: probe midazolam (1'-hydroxylation), read-out: Activity
[5] = Permeability of the compound in PBS at pH 7.4 at 10 uM after 5 hrs by LC-MS/MS analysis; format: ADME; conditions: not told, read-out: permeability
[6] = target: T3, Steroid hormone receptor ERR2 (Homo sapiens, UniProt O95718); assay: Inhibition of fluorescien-conjugated coactivator PGC1a binding to ERRbeta (unknown origin) after 1 hr by TR-FRET assay
T3 sequence (O95718 whole entry): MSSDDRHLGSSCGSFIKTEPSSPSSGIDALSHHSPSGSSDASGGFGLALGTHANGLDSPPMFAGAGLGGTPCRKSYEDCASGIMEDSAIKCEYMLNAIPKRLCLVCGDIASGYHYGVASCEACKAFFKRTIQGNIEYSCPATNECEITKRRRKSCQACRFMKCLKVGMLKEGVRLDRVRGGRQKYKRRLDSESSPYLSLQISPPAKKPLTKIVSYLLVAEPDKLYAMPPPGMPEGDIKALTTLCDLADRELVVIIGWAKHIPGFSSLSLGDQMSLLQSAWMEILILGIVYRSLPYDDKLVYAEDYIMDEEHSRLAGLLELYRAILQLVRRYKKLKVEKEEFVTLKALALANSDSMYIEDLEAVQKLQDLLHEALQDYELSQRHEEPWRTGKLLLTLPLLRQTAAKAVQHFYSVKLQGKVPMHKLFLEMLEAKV

in vitro [7] = conditions: human, liver microsomes
Description: Metabolic stability in human liver microsomes assessed as compound remaining at 1 uM after 30 mins in presence of NADPH by LC-MS/MS analysis

[8] = target: T4, Steroid hormone receptor ERR1 (Homo sapiens, UniProt P11474); assay: Inhibition of fluorescien-conjugated coactivator PGC1a binding to ERRalpha (unknown origin) after 1 hr by TR-FRET assay
T4 sequence (P11474 whole entry): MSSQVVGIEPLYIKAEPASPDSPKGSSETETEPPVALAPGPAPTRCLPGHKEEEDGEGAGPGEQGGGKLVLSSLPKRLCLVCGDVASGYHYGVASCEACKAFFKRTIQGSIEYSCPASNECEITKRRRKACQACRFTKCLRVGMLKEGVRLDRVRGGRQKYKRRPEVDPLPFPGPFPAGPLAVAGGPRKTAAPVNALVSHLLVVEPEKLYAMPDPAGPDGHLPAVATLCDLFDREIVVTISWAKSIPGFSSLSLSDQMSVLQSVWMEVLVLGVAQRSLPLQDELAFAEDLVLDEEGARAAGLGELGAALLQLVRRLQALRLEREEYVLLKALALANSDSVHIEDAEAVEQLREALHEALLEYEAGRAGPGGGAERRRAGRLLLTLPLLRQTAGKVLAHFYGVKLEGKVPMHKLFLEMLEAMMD

in vitro [9] = conditions: rat, liver microsomes
Description: Metabolic stability in rat liver microsomes assessed as compound remaining at 1 uM after 30 mins in presence of NADPH by LC-MS/MS analysis

CYP2D6 = CYP2D6 (Homo sapiens, UniProt P10635); assay: Inhibition of CYP2D6 in human liver microsomes assessed as remaining activity by measuring dextromethorphan O-demethylase activity at 10 uM pre-incubated for 5 mins followed by NADPH regenerating system addition by LC-MS/MS analysis relative to control; format: ADME; conditions: probe dextromethorphan (O-demethylation), read-out: Activity
Estrogen receptor = target: T5, Estrogen receptor (Homo sapiens, UniProt P03372)
T5 sequence (P03372 whole entry): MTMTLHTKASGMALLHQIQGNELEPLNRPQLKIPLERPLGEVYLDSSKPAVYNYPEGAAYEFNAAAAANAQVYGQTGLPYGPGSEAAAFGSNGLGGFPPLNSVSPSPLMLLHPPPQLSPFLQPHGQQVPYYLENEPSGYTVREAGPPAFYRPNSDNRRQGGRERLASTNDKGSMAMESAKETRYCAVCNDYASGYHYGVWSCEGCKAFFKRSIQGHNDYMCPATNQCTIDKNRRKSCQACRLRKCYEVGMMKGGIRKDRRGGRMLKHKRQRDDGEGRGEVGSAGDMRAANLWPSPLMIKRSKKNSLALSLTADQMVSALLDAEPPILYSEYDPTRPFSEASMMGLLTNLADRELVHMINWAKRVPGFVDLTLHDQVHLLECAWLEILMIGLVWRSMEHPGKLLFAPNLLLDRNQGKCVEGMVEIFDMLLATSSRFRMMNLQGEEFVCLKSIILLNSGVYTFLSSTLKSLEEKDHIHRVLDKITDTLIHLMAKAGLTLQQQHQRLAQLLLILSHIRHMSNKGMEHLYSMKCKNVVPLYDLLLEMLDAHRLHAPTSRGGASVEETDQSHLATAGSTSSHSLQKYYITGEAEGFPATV
Description: Inhibition of fluorescien-conjugated coactivator PGC1a binding to ERalpha (unknown origin) after 1 hr by TR-FRET assay

Chain of CYP3A4 (P08684 whole entry): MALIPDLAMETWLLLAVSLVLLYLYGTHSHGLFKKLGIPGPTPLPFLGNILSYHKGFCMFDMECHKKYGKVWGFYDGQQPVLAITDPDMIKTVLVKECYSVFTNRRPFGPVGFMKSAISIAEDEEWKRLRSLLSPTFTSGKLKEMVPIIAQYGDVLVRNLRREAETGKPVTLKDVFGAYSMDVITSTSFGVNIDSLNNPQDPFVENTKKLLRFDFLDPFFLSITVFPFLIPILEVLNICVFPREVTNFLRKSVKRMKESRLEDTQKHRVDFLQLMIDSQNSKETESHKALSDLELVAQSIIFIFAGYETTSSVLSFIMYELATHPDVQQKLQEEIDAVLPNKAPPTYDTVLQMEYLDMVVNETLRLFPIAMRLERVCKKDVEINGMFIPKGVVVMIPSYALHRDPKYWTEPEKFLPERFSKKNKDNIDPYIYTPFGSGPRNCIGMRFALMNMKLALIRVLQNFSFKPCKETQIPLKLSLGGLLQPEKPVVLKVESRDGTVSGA
Chain of CYP2C9 (P11712 whole entry): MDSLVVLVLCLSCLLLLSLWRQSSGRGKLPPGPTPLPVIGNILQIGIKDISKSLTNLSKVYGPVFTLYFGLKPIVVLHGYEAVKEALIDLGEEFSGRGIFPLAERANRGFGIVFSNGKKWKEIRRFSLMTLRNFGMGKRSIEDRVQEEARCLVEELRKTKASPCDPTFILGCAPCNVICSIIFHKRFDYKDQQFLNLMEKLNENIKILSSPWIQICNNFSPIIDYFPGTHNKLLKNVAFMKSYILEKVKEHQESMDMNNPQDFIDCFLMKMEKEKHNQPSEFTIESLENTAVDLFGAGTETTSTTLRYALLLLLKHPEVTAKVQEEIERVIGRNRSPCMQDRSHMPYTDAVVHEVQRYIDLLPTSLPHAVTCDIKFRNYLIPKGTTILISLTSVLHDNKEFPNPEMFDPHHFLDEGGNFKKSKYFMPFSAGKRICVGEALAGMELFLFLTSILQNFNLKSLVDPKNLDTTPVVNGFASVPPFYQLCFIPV
Chain of CYP2C19 (P33261 whole entry): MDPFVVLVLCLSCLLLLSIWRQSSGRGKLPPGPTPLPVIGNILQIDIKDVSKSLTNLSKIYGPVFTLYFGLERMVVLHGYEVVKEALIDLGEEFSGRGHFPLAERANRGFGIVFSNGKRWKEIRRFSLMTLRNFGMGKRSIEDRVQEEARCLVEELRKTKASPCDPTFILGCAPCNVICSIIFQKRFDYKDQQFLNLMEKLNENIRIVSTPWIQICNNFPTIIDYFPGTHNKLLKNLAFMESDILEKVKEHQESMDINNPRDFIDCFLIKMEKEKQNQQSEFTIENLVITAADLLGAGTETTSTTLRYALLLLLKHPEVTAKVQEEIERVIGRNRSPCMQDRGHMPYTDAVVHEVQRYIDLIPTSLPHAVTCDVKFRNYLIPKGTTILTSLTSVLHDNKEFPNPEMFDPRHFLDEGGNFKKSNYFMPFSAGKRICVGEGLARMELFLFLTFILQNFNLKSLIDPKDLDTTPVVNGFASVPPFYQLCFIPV
Chain of CYP2D6 (P10635 whole entry): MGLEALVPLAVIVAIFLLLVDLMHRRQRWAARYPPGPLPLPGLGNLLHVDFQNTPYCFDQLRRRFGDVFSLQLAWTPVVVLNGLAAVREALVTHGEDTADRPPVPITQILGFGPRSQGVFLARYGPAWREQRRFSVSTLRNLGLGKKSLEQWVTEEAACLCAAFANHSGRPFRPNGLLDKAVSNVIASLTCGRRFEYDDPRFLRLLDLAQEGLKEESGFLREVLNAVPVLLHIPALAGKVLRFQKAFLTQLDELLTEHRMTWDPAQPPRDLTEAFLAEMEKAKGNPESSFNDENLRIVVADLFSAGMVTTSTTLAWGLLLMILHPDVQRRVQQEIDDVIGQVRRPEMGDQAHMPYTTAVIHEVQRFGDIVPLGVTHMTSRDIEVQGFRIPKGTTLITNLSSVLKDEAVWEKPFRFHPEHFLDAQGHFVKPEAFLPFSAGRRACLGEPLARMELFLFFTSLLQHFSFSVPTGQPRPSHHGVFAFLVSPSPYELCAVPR

IC50 [1] [nM] | activity at 10 µM (CYP1A2) [%] | IC50 [2] [nM] | activity at 10 µM (CYP2C19) [%] | remaining at 0.5 h, 1 µM (in vitro [3]) [%] | activity at 10 µM (CYP2C9) [%] | remaining at 0.5 h, 1 µM [4] [%] | activity at 10 µM (CYP3A4) [%] | Papp at 5 h, 10 µM [5] [×10⁻⁶ cm/s] | IC50 [6] [nM] | remaining at 0.5 h, 1 µM (in vitro [7]) [%] | IC50 [8] [nM] | remaining at 0.5 h, 1 µM (in vitro [9]) [%] | activity at 10 µM (CYP2D6) [%] | IC50 (Estrogen receptor) [nM] | Compound
500 | – | – | – | – | – | – | – | – | – | – | – | – | – | – | Cc1ccc(/C(=C(\CCCO)c2cccc(F)c2)c2ccc(OCCN(C)C)cc2)cc1
– | 14 | 111 | 11 | 91 | 60 | 73 | 11 | 0.54 | > 10000 | 77 | 8100 | 66 | 12 | – | CN(C)CCOc1ccc(/C(=C(/CCC(F)F)c2ccccc2)c2ccc(O)cc2)cc1.Cl
20 | > 100 | 48 | 72 | 24 | 99 | 21 | 93 | 2.12 | 722 | 72 | 8010 | 35 | > 100 | – | CN(C)CCOc1ccc(/C(=C(/CCCF)c2ccccc2)c2ccc(O)cc2)cc1.Cl
1100 | – | – | – | – | – | – | – | – | – | – | – | – | – | – | CN(C)CCOc1ccc(/C(=C(/CCCO)c2cccc(F)c2)c2ccc(Br)cc2)cc1
5600 | – | – | – | – | – | – | – | – | – | – | – | – | – | – | Cc1ccc(/C(=C(\CCCO)c2ccc3cnn(C)c3c2)c2ccc(OCCN(C)C)cc2)cc1
1300 | – | – | – | – | – | – | – | – | – | – | – | – | – | – | CN(C)CCOc1ccc(/C(=C(/CCCO)c2ccccc2)c2ccc(C(F)(F)F)cc2)cc1
890 | – | – | – | – | – | – | – | – | – | – | – | – | – | – | CN(C)CCOc1ccc(/C(=C(/CCC(F)F)c2ccccc2)c2ccc(Br)cc2)cc1

Further lines, the compound ahead of its results:

Compound | IC50 [1] [nM] | activity at 10 µM (CYP1A2) [%] | IC50 [2] [nM] | activity at 10 µM (CYP2C19) [%] | remaining at 0.5 h, 1 µM (in vitro [3]) [%] | activity at 10 µM (CYP2C9) [%] | remaining at 0.5 h, 1 µM [4] [%] | activity at 10 µM (CYP3A4) [%] | Papp at 5 h, 10 µM [5] [×10⁻⁶ cm/s] | IC50 [6] [nM] | remaining at 0.5 h, 1 µM (in vitro [7]) [%] | IC50 [8] [nM] | remaining at 0.5 h, 1 µM (in vitro [9]) [%] | activity at 10 µM (CYP2D6) [%] | IC50 (Estrogen receptor) [nM]
CN(C)CCOc1ccc(/C(=C(/CCCO)c2ccccc2)c2ccc(Br)cc2)cc1.Cl | 117 | > 100 | 719 | 61 | 35 | 86 | 5.8 | 88 | 6.52 | 6950 | 42 | > 10000 | 30 | 99 | > 10000
COc1ccc(/C(=C(\CCCO)c2ccccc2)c2ccc(OCCN(C)C)cc2)cc1 | 1000 | – | – | – | – | – | – | – | – | – | – | – | – | – | –
CN(C)CCOc1ccc(/C(=C(/CCCO)c2ccccc2)c2ccc(F)cc2)cc1 | 3900 | – | – | – | – | – | – | – | – | – | – | – | – | – | –
CN(C)CCOc1ccc(/C(=C(/CCCO)c2cccnc2)c2ccccc2)cc1 | > 10000 | – | – | – | – | – | – | – | – | – | – | – | – | – | –
CN(C)CCCOc1ccc(/C(=C(/CCCO)c2ccccc2)c2ccc(O)cc2)cc1.Cl | 90 | 96 | 58 | 64 | 13 | 90 | 19 | 79 | 0.36 | > 10000 | 72 | > 10000 | 19 | 93 | –
